In PubChem BioAssay AID248 (DTP/NCI, 2004):
“And” between values parts separate entries of the source, which are not always exact repeats. Identical values can stand only once. Inconclusive results and toxic doses are left out. Cut-off read from the data, not from the text of the source: active = T/C of 150% or more; inactive = T/C below 125%.

Tested on: L1210 leukemia ip in BDF1 mice, survival T/C
Assay: NCI In Vivo Anticancer Drug Screen. Data for tumor model L1210 Leukemia (intraperitoneal) in B6D2F1 (BDF1) mice
Conditions: endpoint: mean survival time, higher = longer survival
Outline: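 Value reflects the ratio of survival in compound-treated mice to survival in vehicle-treated controls, with both groups carrying the same transplanted tumor.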

[1] = dose: 12.5 mg/kg/injection, schedule: Q01DX009 (ip), vehicle: Klucel (hydroxypropylcellulose) (HPC)
[2] = dose: 100.0 mg/kg/injection, schedule: Q01DX001 (ip), vehicle: carboxymethylcellulose (CMC)
[3] = dose: 200.0 mg/kg/injection, schedule: Q01DX001 (ip), vehicle: carboxymethylcellulose (CMC)
[4] = dose: 400.0 mg/kg/injection, schedule: Q01DX001 (ip), vehicle: carboxymethylcellulose (CMC)
[5] = dose: 100.0 mg/kg/injection, schedule: Q04DX003 (ip), vehicle: Klucel (hydroxypropylcellulose) (HPC)
[6] = dose: 200.0 mg/kg/injection, schedule: Q04DX003 (ip), vehicle: Klucel (hydroxypropylcellulose) (HPC)
[7] = dose: 400.0 mg/kg/injection, schedule: Q04DX003 (ip), vehicle: Klucel (hydroxypropylcellulose) (HPC)
[8] = dose: 100.0 mg/kg/injection, schedule: Q01DX009 (ip), vehicle: saline with Tween-80
[9] = dose: 100.0 mg/kg/injection, schedule: Q04DX003 (ip), vehicle: saline with Tween-80
[10] = dose: 200.0 mg/kg/injection, schedule: Q01DX009 (ip), vehicle: saline with Tween-80
[11] = dose: 200.0 mg/kg/injection, schedule: Q04DX003 (ip), vehicle: saline with Tween-80
[12] = dose: 400.0 mg/kg/injection, schedule: Q01DX009 (ip), vehicle: saline with Tween-80
[13] = dose: 400.0 mg/kg/injection, schedule: Q04DX003 (ip), vehicle: saline with Tween-80
[14] = dose: 50.0 mg/kg/injection, schedule: Q01DX009 (ip), vehicle: saline with Tween-80

Measured: T/C

O=C(C[n+]1cccc(/C=N\O)c1)c1ccc(-c2ccc(C(=O)C[n+]3cccc(/C=N\O)c3)cc2)cc1
inactive: dose: 1.5 mg/kg/injection, schedule: Q01DX009 (ip), vehicle: Klucel (hydroxypropylcellulose) (HPC) 97 % of control | dose: 2.5 mg/kg/injection, schedule: Q01DX009 (ip), vehicle: Klucel (hydroxypropylcellulose) (HPC) 102 % of control | dose: 3.0 mg/kg/injection, schedule: Q01DX009 (ip), vehicle: Klucel (hydroxypropylcellulose) (HPC) 97 % of control | dose: 4.0 mg/kg/injection, schedule: Q01DX009 (ip), vehicle: Klucel (hydroxypropylcellulose) (HPC) 97 % of control | dose: 6.0 mg/kg/injection, schedule: Q01DX009 (ip), vehicle: Klucel (hydroxypropylcellulose) (HPC) 94 % of control and 102 % of control | dose: 9.0 mg/kg/injection, schedule: Q01DX009 (ip), vehicle: Klucel (hydroxypropylcellulose) (HPC) 92 % of control | dose: 12.0 mg/kg/injection, schedule: Q01DX009 (ip), vehicle: Klucel (hydroxypropylcellulose) (HPC) 98 % of control | [1] 111 % of control

O=[N+]([O-])c1cccn2cnnc12
inactive: dose: 100.0 mg/kg/injection, schedule: Q01DX001 (ip), vehicle: acetone 92 % of control

Nc1nc2c(c(=O)[nH]1)CN(C(CCc1ccc(N(CCCl)CCCl)cc1)C(=O)O)CN2 (centres undefined)
inactive: dose: 12.5 mg/kg/injection, schedule: Q01DX001 (ip), vehicle: carboxymethylcellulose (CMC) 111 % of control | dose: 25.0 mg/kg/injection, schedule: Q01DX001 (ip), vehicle: carboxymethylcellulose (CMC) 107 % of control | dose: 50.0 mg/kg/injection, schedule: Q01DX001 (ip), vehicle: carboxymethylcellulose (CMC) 113 % of control | dose: 50.0 mg/kg/injection, schedule: Q01DX009 (ip), vehicle: carboxymethylcellulose (CMC) 101 % of control | [2] 111 % of control | dose: 100.0 mg/kg/injection, schedule: Q01DX009 (ip), vehicle: carboxymethylcellulose (CMC) 108 % of control

O=[N+]([O-])/C(=C/c1ccccc1)c1ccccc1
inactive: dose: 50.0 mg/kg/injection, schedule: Q01DX001 (ip), vehicle: saline 102 % of control | dose: 100.0 mg/kg/injection, schedule: Q01DX001 (ip), vehicle: saline 108 % of control | dose: 200.0 mg/kg/injection, schedule: Q01DX001 (ip), vehicle: saline 104 % of control

CCCCC(O)(CCCC)CC(C)(C)C
inactive: [2] 103 % of control | [3] 92 % of control | [4] 92 % of control

Cc1cc(NC(=O)NCc2ccc([N+](=O)[O-])cc2Cl)ccc1S(=O)(=O)F
inactive: [5] 98 % of control | [6] 98 % of control | [7] 106 % of control

Cc1cc(NC(=O)NCCCl)c2c(c1C)CCCC2
inactive: dose: 20.0 mg/kg/injection, schedule: Q01DX001 (ip), vehicle: Klucel (hydroxypropylcellulose) (HPC) 100 % of control | dose: 40.0 mg/kg/injection, schedule: Q01DX001 (ip), vehicle: Klucel (hydroxypropylcellulose) (HPC) 96 % of control | dose: 100.0 mg/kg/injection, schedule: Q01DX001 (ip), vehicle: Klucel (hydroxypropylcellulose) (HPC) 90 % of control

O=C(O)C1CCCCC1C(=O)Nc1ccc(F)cc1 (centres undefined)
inactive: [8] 103 % of control | [9] 102 % of control | [10] 90 % of control | [11] 102 % of control | [12] 105 % of control | [13] 96 % of control

CC(=O)Nc1ccc(C(C)C)cc1
inactive: dose: 100.0 mg/kg/injection, schedule: Q01DX009 (ip), vehicle: Klucel (hydroxypropylcellulose) (HPC) 103 % of control | dose: 200.0 mg/kg/injection, schedule: Q01DX009 (ip), vehicle: Klucel (hydroxypropylcellulose) (HPC) 95 % of control | dose: 400.0 mg/kg/injection, schedule: Q01DX009 (ip), vehicle: Klucel (hydroxypropylcellulose) (HPC) 94 % of control

C=COCCCCCC
inactive: dose: 100.0 mg/kg/injection, schedule: Q04DX002 (ip), vehicle: saline 103 % of control | dose: 200.0 mg/kg/injection, schedule: Q04DX002 (ip), vehicle: saline 100 % of control | dose: 400.0 mg/kg/injection, schedule: Q04DX002 (ip), vehicle: saline 90 % of control

CCOc1ccc(NC(=O)CCCCCCCCC(=O)Nc2ccc(OCC)cc2)cc1
inactive: [14] 98 % of control | dose: 100.0 mg/kg/injection, schedule: Q01DX001 (ip), vehicle: saline with Tween-80 96 % of control | dose: 100.0 mg/kg/injection, schedule: Q04DX002 (ip), vehicle: saline with Tween-80 95 % of control and 110 % of control | [9] 88 % of control | dose: 200.0 mg/kg/injection, schedule: Q01DX001 (ip), vehicle: saline with Tween-80 91 % of control | dose: 200.0 mg/kg/injection, schedule: Q04DX002 (ip), vehicle: saline with Tween-80 100 % of control and 89 % of control | [11] 96 % of control | dose: 400.0 mg/kg/injection, schedule: Q01DX001 (ip), vehicle: saline with Tween-80 88 % of control | [12] 100 % of control and 108 % of control | dose: 400.0 mg/kg/injection, schedule: Q04DX002 (ip), vehicle: saline with Tween-80 94 % of control and 97 % of control | [13] 91 % of control

Cc1ccc(Nc2ccc(Nc3ccc(C)cc3)c3c2C(=O)c2ccccc2C3=O)cc1
inactive: [9] 86 % of control | [11] 87 % of control | [13] 92 % of control

CC(=O)CN
inactive: dose: 100.0 mg/kg/injection, schedule: Q01DX009 (ip), vehicle: saline 111 % of control | dose: 200.0 mg/kg/injection, schedule: Q01DX009 (ip), vehicle: saline 104 % of control | dose: 400.0 mg/kg/injection, schedule: Q01DX009 (ip), vehicle: saline 108 % of control

c1ccc([P+](C2=NNCC2)(c2ccccc2)c2ccccc2)cc1
inactive: dose: 6.25 mg/kg/injection, schedule: Q01DX009 (ip), vehicle: Klucel (hydroxypropylcellulose) (HPC) 105 % of control | [1] 118 % of control | dose: 25.0 mg/kg/injection, schedule: Q01DX009 (ip), vehicle: Klucel (hydroxypropylcellulose) (HPC) 105 % of control and 109 % of control

CN(C)N=Nc1ccc(CCC(=O)NN)cc1
inactive: dose: 20.0 mg/kg/injection, schedule: Q01DX Z (ip), vehicle: saline 111 % of control | dose: 30.0 mg/kg/injection, schedule: Q01DX Z (ip), vehicle: saline 114 % of control | dose: 67.0 mg/kg/injection, schedule: Q01DX Z (ip), vehicle: saline 91 % of control

CC(=O)Nc1ccc(/C=C/c2ccc3ccccc3[n+]2C)cc1
inactive: dose: 25.0 mg/kg/injection, schedule: Q01DX009 (ip), vehicle: saline with Tween-80 97 % of control | dose: 25.0 mg/kg/injection, schedule: Q04DX003 (ip), vehicle: saline with Tween-80 101 % of control | [14] 106 % of control | dose: 50.0 mg/kg/injection, schedule: Q04DX003 (ip), vehicle: saline with Tween-80 98 % of control | [9] 94 % of control

COc1ccc(OC)c(NC(=O)c2cccc(N(CCO)CCO)c2)c1
inactive: [2] 102 % of control | [3] 94 % of control | [4] 94 % of control

O=CNCc1cnccn1
inactive: [8] 93 % of control | [10] 95 % of control | [12] 97 % of control

COC(=O)c1c(Cl)c(Cl)cc(Cl)c1Cl
inactive: dose: 100.0 mg/kg/injection, schedule: Q01DX009 (ip), vehicle: saline sonified 106 % of control | [5] 93 % of control | dose: 200.0 mg/kg/injection, schedule: Q01DX009 (ip), vehicle: saline sonified 113 % of control | [6] 98 % of control | dose: 400.0 mg/kg/injection, schedule: Q01DX009 (ip), vehicle: saline sonified 107 % of control | [7] 106 % of control
